Drawing on PubChem BioAssay (NCI), this text covers TGI for four compounds.

Some test systems named below: SR leukemia; RXF 393 renal; ACHN renal; MOLT-4 leukemia; NCI-H226 lung; MDA-N; TK-10 renal; OVCAR-3 ovarian; BT-549 breast; SN12C renal; SK-MEL-2 melanoma; M14 melanoma; NCI/ADR-RES ovarian; OVCAR-8 ovarian; CAKI-1 renal; SF-295 CNS; DLD-1 colon; M19-MEL melanoma; KM20L2 colon; HOP-92 NSCLC.
Common to all, as to assay: growth of human tumour cells (NCI), 48 h

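Growth conditions: 96-well plates. Treatment: test compound, 48 hours, 5 concentrations. Analysis: linear interpolation between bracketing concentrations; unreached endpoints set to highest concentration. TGI marks complete inhibition of growth.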

`CCOC(=O)Cc1cnc(NC(NC(=O)CC)(C(F)(F)F)C(F)(F)F)s1`: the TGI in the experiment with SR leukemia, with RXF 393 renal, in the experiment on ACHN renal, in the experiment on MOLT-4 leukemia, in the experiment on NCI-H226 lung and with MDA-N was above 100 µM throughout. The TGI in the experiment on TK-10 renal, with OVCAR-3 ovarian, in the experiment on BT-549 breast, in the experiment with SN12C renal, in the experiment with SK-MEL-2 melanoma and in the experiment on M14 melanoma was above 100 µM throughout.
As to `Cc1nc2[nH]ncn2c(=O)c1CCO`, the TGI in the experiment on SR leukemia, in the experiment on RXF 393 renal, in the experiment on ACHN renal, in the experiment with MOLT-4 leukemia, in the experiment on NCI-H226 lung and in the experiment with NCI/ADR-RES ovarian was above 10 µM throughout. The TGI with MDA-N, in the experiment with TK-10 renal, in the experiment with SN12C renal, in the experiment on SK-MEL-2 melanoma, in the experiment with OVCAR-8 ovarian and with M14 melanoma was above 10 µM in each case. This compound came in with a TGI with CAKI-1 renal above 10 µM.
`COc1cc(C2c3cc4c(cc3[C@@H](Oc3ccc(F)cc3)C3COC(=O)[C@H]23)OCO4)cc(OC)c1O` (stereo partly drawn): the TGI with SF-295 CNS was above 60 µM; in the experiment with MOLT-4 leukemia, 4.66 µM; in the experiment on DLD-1 colon, above 100 µM; in the experiment on OVCAR-3 ovarian, 72.3 µM; with M19-MEL melanoma, 40.4 µM; in the experiment on SN12C renal, above 100 µM. Besides, the TGI with SK-MEL-2 melanoma is above 100 µM; in the experiment on OVCAR-8 ovarian, above 100 µM; in the experiment with CAKI-1 renal, 14.5 µM; in the experiment with KM20L2 colon, above 100 µM; with HOP-92 NSCLC it was above 100 µM.
As for `COc1ccc2c3c([nH]c2c1)CCN(Cc1ccccc1)C3`, the TGI is 28.2 µM in the experiment with SF-295 CNS; 40.3 µM in the experiment with SR leukemia; 50.7 µM in the experiment on RXF 393 renal; above 100 µM in the experiment on ACHN renal; 73.7 µM with MOLT-4 leukemia; 73.2 µM with NCI-H226 lung. Also, the TGI was 98.3 µM in the experiment on NCI/ADR-RES ovarian; 65.1 µM with TK-10 renal; 78.2 µM with SN12C renal; above 100 µM with OVCAR-8 ovarian; 34.8 µM with M14 melanoma; 25.6 µM in the experiment on HOP-92 NSCLC.
